Assay in all cases: biochemical
What all share (design): Eurofins KinaseProfiler full panel at Km ATP, residual kinase activity (%) relative to DMSO

Assay [1] concerns the target EphA2(h) (Homo sapiens, UniProt P29317). The method, boiled down: (§1)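 Two 10 µM single-concentration screens were run: a competition-binding screen, in which DNA-tagged kinase bound to immobilized ligands was quantified by qPCR, and a radiometric activity panel at Km ATP. Each is expressed as residual kinase activity (%).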
The target of assay [2] is T1, PKBα(h) (Homo sapiens, UniProt P31749).
T1 construct: gene AKT1
T1 sequence (P31749 whole entry): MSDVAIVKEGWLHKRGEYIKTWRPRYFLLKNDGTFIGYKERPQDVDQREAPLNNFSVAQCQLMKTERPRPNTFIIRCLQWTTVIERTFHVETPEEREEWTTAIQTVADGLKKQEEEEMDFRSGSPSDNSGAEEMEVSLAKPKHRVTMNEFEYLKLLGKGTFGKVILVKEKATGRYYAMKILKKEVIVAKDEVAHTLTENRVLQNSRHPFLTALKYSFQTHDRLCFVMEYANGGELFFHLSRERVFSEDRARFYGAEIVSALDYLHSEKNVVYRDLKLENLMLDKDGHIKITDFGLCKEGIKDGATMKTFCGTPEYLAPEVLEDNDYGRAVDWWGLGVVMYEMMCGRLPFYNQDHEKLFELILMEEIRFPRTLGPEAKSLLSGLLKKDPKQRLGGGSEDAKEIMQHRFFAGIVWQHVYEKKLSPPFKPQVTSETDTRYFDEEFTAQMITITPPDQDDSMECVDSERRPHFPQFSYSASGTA
The method, boiled down: as §1

Assay [3] concerns the target CDK14/cyclinY(h) (Homo sapiens, UniProt O94921). The method, boiled down:
as §1

Assay [4] addresses T2, TLK1(h) (Homo sapiens, UniProt Q9UKI8).
T2 sequence (Q9UKI8 1-766): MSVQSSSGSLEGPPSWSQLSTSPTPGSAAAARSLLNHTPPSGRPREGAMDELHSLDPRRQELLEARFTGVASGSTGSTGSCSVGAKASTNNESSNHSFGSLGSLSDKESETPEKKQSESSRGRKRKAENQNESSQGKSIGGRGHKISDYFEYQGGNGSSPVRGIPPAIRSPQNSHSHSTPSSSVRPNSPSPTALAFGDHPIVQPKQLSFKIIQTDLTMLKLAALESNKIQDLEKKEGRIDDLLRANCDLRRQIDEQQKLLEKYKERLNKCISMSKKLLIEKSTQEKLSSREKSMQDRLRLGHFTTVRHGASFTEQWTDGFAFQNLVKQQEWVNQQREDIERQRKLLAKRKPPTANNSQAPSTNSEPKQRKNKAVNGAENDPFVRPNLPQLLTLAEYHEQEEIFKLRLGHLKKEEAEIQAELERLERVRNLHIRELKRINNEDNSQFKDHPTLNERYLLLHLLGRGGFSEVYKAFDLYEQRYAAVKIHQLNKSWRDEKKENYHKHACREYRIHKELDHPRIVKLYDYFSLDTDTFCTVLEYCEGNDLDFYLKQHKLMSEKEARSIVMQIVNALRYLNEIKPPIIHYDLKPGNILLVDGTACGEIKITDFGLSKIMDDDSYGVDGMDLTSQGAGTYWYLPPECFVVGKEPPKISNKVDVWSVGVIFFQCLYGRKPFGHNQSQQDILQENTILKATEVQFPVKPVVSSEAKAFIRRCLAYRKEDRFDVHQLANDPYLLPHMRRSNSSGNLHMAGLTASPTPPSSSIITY
Summed up:
as §1

Assay [5] addresses T3, IKKε(h) (Homo sapiens, UniProt Q14164).
T3 construct: gene IKBKE
T3 sequence (Q14164 1-716): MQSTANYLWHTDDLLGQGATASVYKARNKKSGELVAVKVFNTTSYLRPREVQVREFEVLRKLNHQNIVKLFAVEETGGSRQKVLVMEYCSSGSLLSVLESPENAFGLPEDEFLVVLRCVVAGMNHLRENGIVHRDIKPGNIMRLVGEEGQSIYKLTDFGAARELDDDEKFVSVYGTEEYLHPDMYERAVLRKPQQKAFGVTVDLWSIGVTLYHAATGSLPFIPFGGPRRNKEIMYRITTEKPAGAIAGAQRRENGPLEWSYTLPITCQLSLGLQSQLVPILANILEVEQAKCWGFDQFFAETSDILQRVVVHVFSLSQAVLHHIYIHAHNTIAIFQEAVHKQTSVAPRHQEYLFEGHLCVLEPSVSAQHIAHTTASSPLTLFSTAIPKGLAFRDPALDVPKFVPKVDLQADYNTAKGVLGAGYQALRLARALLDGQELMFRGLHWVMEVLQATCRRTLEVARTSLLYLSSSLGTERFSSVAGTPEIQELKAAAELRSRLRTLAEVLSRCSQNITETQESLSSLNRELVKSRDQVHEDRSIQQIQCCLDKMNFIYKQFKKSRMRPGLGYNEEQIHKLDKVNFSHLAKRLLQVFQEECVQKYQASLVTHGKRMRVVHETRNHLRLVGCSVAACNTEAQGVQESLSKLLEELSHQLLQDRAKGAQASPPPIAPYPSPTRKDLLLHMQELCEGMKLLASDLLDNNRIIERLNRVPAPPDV
Summed up:
as §1

For assay [6], the target named is NEK4 (Homo sapiens, UniProt P51957). Summed up: as §1
NEK4, sequence (P51957 whole entry): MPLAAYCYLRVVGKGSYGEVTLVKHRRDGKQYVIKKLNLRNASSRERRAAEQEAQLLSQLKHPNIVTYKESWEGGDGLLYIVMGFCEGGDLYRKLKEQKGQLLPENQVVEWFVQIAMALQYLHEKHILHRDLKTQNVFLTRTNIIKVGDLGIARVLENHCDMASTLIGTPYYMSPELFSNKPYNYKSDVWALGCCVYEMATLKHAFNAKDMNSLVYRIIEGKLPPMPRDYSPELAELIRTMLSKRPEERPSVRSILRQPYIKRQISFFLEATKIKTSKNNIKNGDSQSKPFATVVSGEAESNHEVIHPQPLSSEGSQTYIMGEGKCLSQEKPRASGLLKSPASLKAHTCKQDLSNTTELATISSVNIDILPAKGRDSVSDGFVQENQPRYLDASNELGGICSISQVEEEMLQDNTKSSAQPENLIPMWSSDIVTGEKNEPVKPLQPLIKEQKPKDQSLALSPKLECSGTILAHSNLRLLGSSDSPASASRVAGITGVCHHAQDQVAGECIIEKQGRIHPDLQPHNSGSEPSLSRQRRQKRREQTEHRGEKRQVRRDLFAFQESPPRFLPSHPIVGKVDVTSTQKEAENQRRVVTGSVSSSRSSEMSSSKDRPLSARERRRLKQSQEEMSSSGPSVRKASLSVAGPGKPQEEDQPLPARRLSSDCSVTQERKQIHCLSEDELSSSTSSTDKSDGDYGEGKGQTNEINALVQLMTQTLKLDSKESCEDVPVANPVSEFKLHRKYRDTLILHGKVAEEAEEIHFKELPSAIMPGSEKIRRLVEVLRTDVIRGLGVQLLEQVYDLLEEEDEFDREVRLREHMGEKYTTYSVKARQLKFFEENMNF
Setting [7] is: read-out: Residual activity (%) Spautin-1 5aa.
Setting [8] is: read-out: Residual activity (%) 5as.
[9] abbreviates: read-out: Residual activity (%) 5at.
Setting [10] is: read-out: Residual activity (%) 5ay.

Structures are written as SMILES. Where two headings read alike, the source gives them in different places.

CDK14/cyclinY(h), sequence (O94921 whole entry): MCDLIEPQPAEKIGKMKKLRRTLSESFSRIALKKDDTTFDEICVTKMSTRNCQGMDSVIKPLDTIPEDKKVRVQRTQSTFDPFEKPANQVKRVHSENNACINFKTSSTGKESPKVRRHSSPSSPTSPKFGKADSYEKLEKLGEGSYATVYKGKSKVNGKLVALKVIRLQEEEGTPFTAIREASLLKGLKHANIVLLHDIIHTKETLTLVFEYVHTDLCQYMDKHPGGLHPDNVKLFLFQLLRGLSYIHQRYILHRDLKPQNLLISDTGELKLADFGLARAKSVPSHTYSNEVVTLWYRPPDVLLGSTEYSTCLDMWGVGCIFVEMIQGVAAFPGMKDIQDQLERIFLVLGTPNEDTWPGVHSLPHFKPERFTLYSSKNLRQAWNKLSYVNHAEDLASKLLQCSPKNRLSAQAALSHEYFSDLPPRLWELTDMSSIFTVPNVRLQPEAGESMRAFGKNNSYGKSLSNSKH
CDK14/cyclinY(h), sequence (Q8ND76 whole entry partner): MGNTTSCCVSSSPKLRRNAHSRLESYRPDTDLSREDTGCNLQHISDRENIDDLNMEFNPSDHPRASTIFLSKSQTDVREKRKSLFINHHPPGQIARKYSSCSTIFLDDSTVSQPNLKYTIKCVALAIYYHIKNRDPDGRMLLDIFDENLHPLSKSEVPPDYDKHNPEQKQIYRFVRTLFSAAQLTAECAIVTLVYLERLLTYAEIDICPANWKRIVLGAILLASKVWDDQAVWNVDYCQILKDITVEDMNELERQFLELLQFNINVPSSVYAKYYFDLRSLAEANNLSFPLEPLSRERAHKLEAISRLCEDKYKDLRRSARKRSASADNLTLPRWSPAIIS
EphA2(h), sequence (P29317 whole entry): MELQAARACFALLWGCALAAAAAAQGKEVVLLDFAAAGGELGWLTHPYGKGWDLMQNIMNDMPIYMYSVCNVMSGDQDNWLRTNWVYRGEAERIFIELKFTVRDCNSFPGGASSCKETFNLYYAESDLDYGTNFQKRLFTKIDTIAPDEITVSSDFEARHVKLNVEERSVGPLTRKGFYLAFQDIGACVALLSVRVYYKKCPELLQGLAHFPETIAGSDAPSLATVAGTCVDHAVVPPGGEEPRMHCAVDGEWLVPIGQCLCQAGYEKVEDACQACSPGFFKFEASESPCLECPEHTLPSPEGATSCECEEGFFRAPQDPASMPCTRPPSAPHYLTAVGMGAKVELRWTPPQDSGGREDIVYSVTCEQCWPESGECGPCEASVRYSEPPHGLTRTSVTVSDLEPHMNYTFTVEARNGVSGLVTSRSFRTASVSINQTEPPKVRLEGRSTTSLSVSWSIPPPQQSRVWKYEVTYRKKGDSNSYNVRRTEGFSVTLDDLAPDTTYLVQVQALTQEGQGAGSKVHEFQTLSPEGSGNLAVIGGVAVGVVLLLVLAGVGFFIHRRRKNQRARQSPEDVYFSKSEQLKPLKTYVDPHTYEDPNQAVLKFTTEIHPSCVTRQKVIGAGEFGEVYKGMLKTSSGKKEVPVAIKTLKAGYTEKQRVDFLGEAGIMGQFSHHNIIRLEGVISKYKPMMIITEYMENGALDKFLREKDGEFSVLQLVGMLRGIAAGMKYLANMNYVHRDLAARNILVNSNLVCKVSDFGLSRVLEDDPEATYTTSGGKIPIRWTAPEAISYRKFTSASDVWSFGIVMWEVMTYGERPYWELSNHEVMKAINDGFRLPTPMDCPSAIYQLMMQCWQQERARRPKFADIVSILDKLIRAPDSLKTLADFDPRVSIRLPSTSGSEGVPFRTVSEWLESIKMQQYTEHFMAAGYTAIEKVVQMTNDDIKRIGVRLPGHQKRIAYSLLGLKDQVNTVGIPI

Take `Fc1ccc(CNc2ncnc3ccc(F)cc23)cc1` [5aa, 6-Fluoro-N-(4-fluorobenzyl)-4-Quinazolinamine]: the remaining activity at 10 µM was 73% in assay [1] (setting [7]); 86% in assay [2] (setting [7]); 107% in assay [3] (setting [7]); 112% in assay [4] (setting [7]); 64% in assay [5] (setting [7]); 71% in assay [6] (setting [7]).
Turning to `Fc1ccc(CCNc2ncnc3ccc(F)cc23)cc1` [5as, 6-Fluoro-N-[2-(4-Fluorophenyl)Ethyl]-4-Quinazolinamine], the remaining activity at 10 µM turned out to be 90% in assay [1] (setting [8]); 98% in assay [2] (setting [8]); 103% in assay [3] (setting [8]); 112% in assay [4] (setting [8]); 72% in assay [5] (setting [8]).
Take `Fc1ccc2ncnc(NCCc3ccc(Cl)cc3)c2c1` [5at, N-[2-(4-Chlorophenyl)Ethyl]-6-Fluoro-4-Quinazolinamine]: the remaining activity at 10 µM in assay [1] (setting [9]) came out at 99%; in assay [2] (setting [9]) it was 89%; in assay [3] (setting [9]) it was 109%; in assay [4] (setting [9]), 97%; in assay [5] (setting [9]), 79%; in assay [6] (setting [9]), 12%.
As to `COc1ccc2ncnc(Nc3cccc(F)c3)c2c1` [5ay, N-(3-Fluorophenyl)-6-Methoxy-4-Quinazolinamine], the remaining activity at 10 µM was 75% in assay [1] (setting [10]); 88% in assay [2] (setting [10]); 93% in assay [3] (setting [10]); 107% in assay [4] (setting [10]); 67% in assay [5] (setting [10]); 30% in assay [6] (setting [10]).

Values taken from PMC7827406, “Structure–Activity Relationship (SAR) Study of Spautin-1 to Entail the Discovery of Novel NEK4 Inhibitors” (International Journal of Molecular Sciences, 2021).
